Here are results for 11 compounds from patent US9550796B2, “Pyrrolopyrrolone derivatives and their use as BET inhibitors” (NOVARTIS AG, priority 2013, dated 2017).

In one assay the target is BRD4 (Homo sapiens (Human), UniProt O60885). The experiment in a line: TR-FRET in-vitro binding assay for BRD4. The settings on record: 45 nM His-Brd4(44-477), acetyl-histone H4 (AcK 5, 8, 12, 16) peptide. The gist of the method: (§1)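 Incubation at 30° C lasted 35 min, followed by TR-FRET measurement; each compound was tested as 8 single-point concentrations.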
In another assay the target is BRD2 (Homo sapiens (Human), UniProt P25440). As to the kind of experiment: TR-FRET in-vitro binding assay for BRD2. The settings on record: 45 nM His-Brd2(60-472), acetyl-histone H4 (AcK 5, 8, 12, 16) peptide. The gist of the method:
as §1

The target in another assay is BRD3 (Homo sapiens (Human), UniProt Q15059). As to the kind of experiment: TR-FRET in-vitro binding assay for BRD3. The settings on record: 45 nM His-Brd3(20-477), acetyl-histone H4 (AcK 5, 8, 12, 16) peptide. The gist of the method:
as §1

The next assay addresses CREBBP (Homo sapiens (Human), UniProt Q92793). The experiment in a line: AlphaScreen in-vitro binding assay for CREBBP. The settings on record: 324 nM His-CREBBP (1081-1197), acetyl-histone H4 (AcK 5, 8, 12) peptide. The gist of the method: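 IC50 values were derived by non-linear regression of percent inhibition across 8 compound concentrations. Protein was His-tagged CREBBP bromodomain (1081-1197), peptide acetyl-histone H4 (AcK 5, 8, 12), in HEPES pH 7.5 buffer. Read-out was AlphaScreen with Ni-chelate acceptor and streptavidin donor beads, 35 min at 30° C then 60 min at RT.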

The subject of the next assay is MV-4-11. The experiment in a line: Cell growth inhibition assay (CellTiter-Glo), MV-4-11. In kind it is cell-based, human. Particulars: MV-4-11 cells, 4 days; for GI50: Homo sapiens, MV4-11, 96 h, half-maximal growth inhibition; for MV-4-11 TGI: total growth inhibition. In a few lines: (§2)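 4-day CTG ATP readout, 37 °C/5% CO2; top conc 10 μM, 3-fold dilutions; 0.1% DMSO vehicle. Luminescence background-subtracted, normalised to day 0 plate; vehicle = 100%, medium = −100%. IC50/TGI by 4-parameter fit.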

The subject of a further assay is THP-1. As to the kind of experiment: Cell growth inhibition assay (CellTiter-Glo), THP-1. In kind it is cell-based, human. Particulars: THP-1 cells, 4 days; for GI50: Homo sapiens, 96 h, half-maximal growth inhibition; for THP-1 TGI: total growth inhibition. The gist of the method:
as §2

Another assay relates to K-562. The experiment in a line: Cell growth inhibition assay (CellTiter-Glo), K-562. The settings on record: K-562 cells, 4 days; for GI50: Homo sapiens, K562, 96 h, half-maximal growth inhibition; for K-562 TGI: total growth inhibition. The class given is cell-based, human. In a few lines: as §2

Sequence of BRD2 (P25440 60-472): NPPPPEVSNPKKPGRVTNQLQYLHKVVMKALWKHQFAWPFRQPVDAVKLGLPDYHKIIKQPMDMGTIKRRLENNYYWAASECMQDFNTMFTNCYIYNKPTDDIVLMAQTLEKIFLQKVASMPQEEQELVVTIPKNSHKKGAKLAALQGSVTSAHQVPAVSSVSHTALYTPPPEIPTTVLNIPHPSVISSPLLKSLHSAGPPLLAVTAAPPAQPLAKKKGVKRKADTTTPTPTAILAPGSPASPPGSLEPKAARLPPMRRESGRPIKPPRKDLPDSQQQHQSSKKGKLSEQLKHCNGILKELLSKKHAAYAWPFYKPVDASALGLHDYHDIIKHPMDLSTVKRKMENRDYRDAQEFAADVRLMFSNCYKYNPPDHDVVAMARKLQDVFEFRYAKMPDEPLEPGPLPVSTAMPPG
Sequence of CREBBP (Q92793 1081-1197): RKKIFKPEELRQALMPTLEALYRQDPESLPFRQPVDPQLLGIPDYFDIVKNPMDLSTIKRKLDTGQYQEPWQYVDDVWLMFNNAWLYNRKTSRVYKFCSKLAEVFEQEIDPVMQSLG
Sequence of BRD3 (Q15059 20-477): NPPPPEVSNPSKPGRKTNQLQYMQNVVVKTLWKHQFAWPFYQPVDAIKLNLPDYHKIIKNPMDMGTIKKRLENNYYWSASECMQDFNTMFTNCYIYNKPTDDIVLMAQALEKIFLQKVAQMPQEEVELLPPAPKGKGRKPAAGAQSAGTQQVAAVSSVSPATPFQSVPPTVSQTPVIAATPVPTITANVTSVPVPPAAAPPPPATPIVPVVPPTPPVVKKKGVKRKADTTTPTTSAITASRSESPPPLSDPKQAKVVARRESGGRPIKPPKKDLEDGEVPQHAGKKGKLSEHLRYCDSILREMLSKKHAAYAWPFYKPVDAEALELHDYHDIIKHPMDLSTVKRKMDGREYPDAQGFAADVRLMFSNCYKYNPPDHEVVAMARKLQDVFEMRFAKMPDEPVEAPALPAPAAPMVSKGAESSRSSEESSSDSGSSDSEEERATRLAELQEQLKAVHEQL

In the case of `CCOC(=O)Nc1cn(C)c2c1C(=O)N(c1cc(C)c3nnn(C)c3n1)C2c1ccc(Cl)cc1` (centres unmarked) [Example 97, Ethyl (6-(4-chlorophenyl)-5-(3,7-dimethyl-3H-[1,2,3]triazolo[4,5-b]pyridin-5-yl)-1-methyl-4-oxo-1,4,5,6-tetrahydropyrrolo[3,4-b]pyrrol-3-yl)carbamate], the IC50 on BRD4 is 35 nM; on BRD2 it was 15 nM; at BRD3 it was below 11 nM; at CREBBP it was above 37000 nM. In addition, the results for the 50% growth inhibitory concentration (GI50) in the assay with MV-4-11, in the assay on THP-1 and in the assay on K-562 were 13.7 nM, 17.9 nM and 48.7 nM, respectively. Also, the “MV-4-11 TGI” value in the assay with MV-4-11 was 24.95 nM. Further, in the assay on THP-1, the “THP-1 TGI” value worked out at 33.45 nM. For the same compound, the “K-562 TGI” value with K-562 is above 10000 nM.

Turning to `Cc1cn(C2CN(C)C2)c2c1C(=O)N(c1cc(C)c3nnc(C)n3c1)C2c1ccc(Cl)cc1` (centres unmarked) [Example 5, 6-(4-chlorophenyl)-5-(3,8-dimethyl-[1,2,4]triazolo[4,3-a]pyridin-6-yl)-3-methyl-1-(1-methylazetidin-3-yl)-5,6-dihydropyrrolo[3,4-b]pyrrol-4(1H)-one], the IC50 at BRD4 came out at 24 nM; on BRD2 it was 45 nM; at BRD3 it was 25 nM; at CREBBP, 6300 nM. Also, the GI50 stood at 6.3 nM in the assay with MV-4-11, 12.1 nM in the assay with THP-1 and 47.8 nM with K-562. For the same compound, the “MV-4-11 TGI” value with MV-4-11 was determined as 13.05 nM. Moreover, in the assay on THP-1, the “THP-1 TGI” value turned out to be 36.2 nM. Besides, the “K-562 TGI” value with K-562 is above 10000 nM.

As for `CC(=O)N1CC(n2cc(C3CC3)c3c2C(c2ccc(Cl)cc2)N(c2cc(C)c4nnn(C)c4n2)C3=O)C1` (centres unmarked) [Example 105, 1-(1-acetylazetidin-3-yl)-6-(4-chlorophenyl)-3-cyclopropyl-5-(3,7-dimethyl-3H-[1,2,3]triazolo[4,5-b]pyridin-5-yl)-5,6-dihydropyrrolo[3,4-b]pyrrol-4(1H)-one], the 50% inhibitory concentration (IC50) is below 11 nM on BRD4, 13 nM on BRD2, 12 nM on BRD3 and 14100 nM at CREBBP. The GI50 turned out to be 0.341 nM in the assay with MV-4-11, 0.674 nM in the assay with THP-1 and 4.76 nM with K-562. In addition, the “MV-4-11 TGI” value in the assay with MV-4-11 worked out at 2.43 nM. Further, the “THP-1 TGI” value in the assay with THP-1 is 2.38 nM. The “K-562 TGI” value in the assay on K-562 is above 10000 nM.

`Cn1c(-c2ccn(C)c(=O)c2)cc2c1C(c1ccc(Cl)cc1)N(c1cc(Cl)c(=O)n(C)c1)C2=O` (centres unmarked) [Example 41, 5-(5-chloro-1-methyl-6-oxo-1,6-dihydropyridin-3-yl)-6-(4-chlorophenyl)-1-methyl-2-(1-methyl-2-oxo-1,2-dihydropyridin-4-yl)-5,6-dihydropyrrolo[3,4-b]pyrrol-4(1H)-one]: the 50% inhibitory concentration (IC50) on BRD4 is 85 nM; at BRD2, 83 nM; on BRD3, 65.5 nM; on CREBBP it was 535 nM. The GI50 came to 78.7 nM in the assay on MV-4-11, 167 nM in the assay with THP-1 and 517 nM with K-562. Also, the “MV-4-11 TGI” value in the assay on MV-4-11 stood at 128 nM. Moreover, in the assay with THP-1, the “THP-1 TGI” value stood at 307 nM. Also, in the assay with K-562, the “K-562 TGI” value is above 10000 nM.

In the case of `Cc1cc(N2C(=O)c3cc(-c4cccn(C)c4=O)[nH]c3C2c2ccc(Cl)cc2)cn2c(C)nnc12` (centres unmarked) [Example 25, 6-(4-chlorophenyl)-5-(3,8-dimethyl-[1,2,4]triazolo[4,3-a]pyridin-6-yl)-2-(1-methyl-2-oxo-1,2-dihydropyridin-3-yl)-5,6-dihydropyrrolo[3,4-b]pyrrol-4(1H)-one], the IC50 on BRD4 was 17 nM; at BRD2, 38 nM; at BRD3, 23 nM; at CREBBP, 4400 nM. Besides, the values for the concentration for 50% growth inhibition (GI50) in the assay with MV-4-11, with THP-1 and with K-562 were 36.8 nM, 39.2 nM and 156 nM, respectively. For the same compound, the “MV-4-11 TGI” value with MV-4-11 stood at 58.15 nM. The “THP-1 TGI” value in the assay on THP-1 came out at 94.9 nM. Also, the “K-562 TGI” value in the assay with K-562 is above 10000 nM.

As for `Cc1cc(N2C(=O)c3c(C4CC4)cn(C4CN(C)C4)c3C2c2ccc(Cl)cc2)cn2c(C)nnc12` (centres unmarked) [Example 16, 6-(4-chlorophenyl)-3-cyclopropyl-5-(3,8-dimethyl-[1,2,4]triazolo[4,3-a]pyridin-6-yl)-1-(1-methylazetidin-3-yl)-5,6-dihydropyrrolo[3,4-b]pyrrol-4(1H)-one], the concentration for half-maximal inhibition (IC50) at BRD4 came to 14 nM; at BRD2 it was 14 nM; on BRD3, 19 nM; on CREBBP, 5000 nM. The GI50 worked out at 3.81 nM in the assay on MV-4-11, 11.7 nM in the assay with THP-1 and 45.2 nM in the assay on K-562. Further, the “MV-4-11 TGI” value in the assay on MV-4-11 stood at 12.4 nM. Besides, the “THP-1 TGI” value in the assay with THP-1 stood at 35.5 nM. The “K-562 TGI” value in the assay with K-562 was above 10000 nM.

In the case of `Cn1c(-c2cccc(=O)n2C)cc2c1C(c1ccc(Cl)cc1)N(c1cc(Cl)c(=O)n(C)c1)C2=O` (centres unmarked) [Example 44, 5-(5-chloro-1-methyl-6-oxo-1,6-dihydropyridin-3-yl)-6-(4-chlorophenyl)-1-methyl-2-(1-methyl-6-oxo-1,6-dihydropyridin-2-yl)-5,6-dihydropyrrolo[3,4-b]pyrrol-4(1H)-one], the IC50 was 66 nM on BRD4, 54 nM on BRD2, 41 nM on BRD3 and 310 nM at CREBBP. The GI50 in the assay on MV-4-11 was 264 nM; in the assay with THP-1 it was 1420 nM; with K-562, 2590 nM. For the same compound, the “MV-4-11 TGI” value in the assay on MV-4-11 was 391 nM. Besides, the “THP-1 TGI” value with THP-1 came out at 2700 nM. Also, the “K-562 TGI” value with K-562 is above 10000 nM.

As to `Cc1cn(C)c2c1C(=O)N(c1cc(C)c3nnn(C)c3n1)C2c1ccc(Cl)cc1` (centres unmarked) [Example 32, 6-(4-chlorophenyl)-5-(3,7-dimethyl-3H-[1,2,3]triazolo[4,5-b]pyridin-5-yl)-1,3-dimethyl-5,6-dihydropyrrolo[3,4-b]pyrrol-4(1H)-one], the IC50 on BRD4 is 110 nM; on BRD2 it was 160 nM; on BRD3, 100 nM; on CREBBP, above 37000 nM. The GI50 came to 111 nM in the assay with MV-4-11, 174 nM in the assay on THP-1 and 430 nM in the assay on K-562. For the same compound, the “MV-4-11 TGI” value in the assay with MV-4-11 turned out to be 203.5 nM. The “THP-1 TGI” value in the assay with THP-1 came out at 343 nM. Moreover, in the assay with K-562, the “K-562 TGI” value was above 10000 nM.

`Cc1cc(N2C(=O)c3ccn(C)c3C2c2ccc(Cl)c(F)c2)cn(C)c1=O` (centres unmarked) [Example 80, 6-(4-chloro-3-fluorophenyl)-5-(1,5-dimethyl-6-oxo-1,6-dihydropyridin-3-yl)-1-methyl-5,6-dihydropyrrolo[3,4-b]pyrrol-4(1H)-one]: the IC50 on BRD4 was determined as 154 nM; at BRD2, 292 nM; on BRD3 it was 147 nM; on CREBBP, 1500 nM. In addition, the figures for the GI50 with MV-4-11, with THP-1 and in the assay on K-562 were 148 nM, 146 nM and 455 nM, respectively. In addition, in the assay on MV-4-11, the “MV-4-11 TGI” value amounted to 267 nM. The “THP-1 TGI” value in the assay on THP-1 came to 369.5 nM. In addition, the “K-562 TGI” value in the assay with K-562 was above 10000 nM.

As for `Cn1ccc2c1C(c1ccc(C#N)cc1)N(c1cc(Cl)c(=O)n(C)c1)C2=O` (centres unmarked) [Example 89, 4-(5-(5-chloro-1-methyl-6-oxo-1,6-dihydropyridin-3-yl)-1-methyl-4-oxo-1,4,5,6-tetrahydropyrrolo[3,4-b]pyrrol-6-yl)benzonitrile], the IC50 at BRD4 amounted to 357 nM; on BRD2, 230 nM; at BRD3, 210 nM; on CREBBP, 10600 nM. For the same compound, the 50% growth inhibitory concentration (GI50) with MV-4-11 came out at 402 nM; in the assay with THP-1, 598 nM; in the assay on K-562, 1910 nM. Besides, the “MV-4-11 TGI” value with MV-4-11 worked out at 785 nM. Further, the “THP-1 TGI” value with THP-1 turned out to be 2015 nM. Further, the “K-562 TGI” value with K-562 was above 10000 nM.

As to `Cc1cc(N2C(=O)c3cc(-c4cccc(=O)n4C)n(C4CC4)c3C2c2ccc(Cl)cc2)cn(C)c1=O` (centres unmarked) [Example 63, 6-(4-chlorophenyl)-1-cyclopropyl-5-(1,5-dimethyl-6-oxo-1,6-dihydropyridin-3-yl)-2-(1-methyl-6-oxo-1,6-dihydropyridin-2-yl)-5,6-dihydropyrrolo[3,4-b]pyrrol-4(1H)-one], the IC50 at BRD4 turned out to be 120 nM; at BRD2 it was 100 nM; at BRD3, 85 nM; on CREBBP it was 180 nM. The concentration for 50% growth inhibition (GI50) in the assay on MV-4-11 was 94.4 nM; with THP-1, 426 nM; in the assay on K-562 it was 680 nM. Moreover, the “MV-4-11 TGI” value with MV-4-11 worked out at 160 nM. Further, the “THP-1 TGI” value in the assay on THP-1 is 788 nM. The “K-562 TGI” value in the assay on K-562 was above 10000 nM.
